From US20110200165A1, “CONTRAST AGENT-REINFORCED RADIOTHERAPY HAVING HIGH-OUTPUT TUBES” (BAYER SCHERING PHARMA AKTIENGESELLSCHAFT, priority 2008, published 2011)

Legend:
[1] = system: glioblastoma (GS9L) rat tumor model; assay: Contrast medium-enhanced radiation therapy compared with linear accelerator, glioblastoma (GS9L) rat tumor model; format: in vivo
Description: For examination of the therapeutic effectiveness of the contrast medium-enhanced radiation therapy with a high dose rate, the latter was compared to the therapeutic standard, i.e., a radiation therapy on the linear accelerator. To this end, a glioblastoma (GS9L) rat tumor model was used. Male Fischer rats were stereotactially inoculated with 5 µl of cell suspension (10^6 glioblastoma 9L cells) in the brain. After 8 days, the to growth was ensured by means of MRT, and the animals were divided into 3 groups. The animals of group 1 (n=6) obtained no therapy and were used as a control. Animals of group 2 (n=5) were treated on the linear accelerator (Novalis, Brain Lab AG, Feldkirchen) at 2 MV with a total dose of 18 Gy. This dose was administered to 3 in fractions of 6 Gy each on days 9, 10 and 11 after inoculation. The animals of group 3 passed through a contrast medium-enhanced radiation therapy on days 9-11 with a total dose of 18 Gy and a tube voltage of 140 kV (Volume Zoom, Siemens Medical Solutions, Erlangen). Six therapy sessions were carried out (2 per day at 4-hour intervals) and in each case a dose of 3 Gy was administered to the animals within 90 seconds. This corresponds to a tumor-dose rate of 2 Gy/minute. […]

[2] = rat, in vivo
Description: The contrast medium can also be intraarterially introduced into the vessel as in interventional angiography. To this end, a catheter is positioned in front of the outlet of the vascular section of interest. In the GS9L rat tumor model, the contrast medium concentration in the tumor was studied at a low flow rate for an intraarterial administration in 4 animals. To this end, the carotid artery was catheterized on day 10 after inoculation of the tumor cells, and a cannula was placed in the internal carotid artery (19). Via the latter, Isovist 300 was administered in a dosage of 2 g of iodine within 6 minutes. CT images of the rat head were made at the points in time 0, 1, 2, . . . 15 and 20 minutes after the beginning of the injection. For evaluation, the DynEva equipment software was used. The mean absorption in the tumor, adjacent healthy brain areas and in adjacent skin areas was determined for each point in time and converted into the corresponding iodine concentration. […] Relative to an intravenous administration, the plateau phase is extended to 60-120 seconds, and the drop in iodine concentration is slower. During the contrast medium administration phase, iodine accumulates analogously in the tumor and reaches a plateau after the end of the latter. […] In the healthy brain tissue, only very low iodine concentrations<0.5 mg/ml were observed.

[3] = system: glioblastoma (GS9L) rat tumor model; assay: Contrast medium-enhanced CT radiation therapy, survival, glioblastoma (GS9L) rat tumor model; format: in vivo; settings: 2 g of iodine/kg i.v. within 6 minutes before each of 6 sessions of 3 Gy, 140 kV, total 18 Gy; versus irradiation with common salt and untreated
Description: The therapeutic effectiveness of the contrast medium-enhanced radiation therapy was examined on a glioblastoma (GS9L) rat tumor model. To this end, male Fisher rats were inoculated stereotactically with 5 […]I of cell suspension (10^6 glioblastoma 9L cells) in the brain. After 8 days, the tumor growth was ensured by means of MRT, and the animals were divided into 3 groups (n=5). The animals of group 1 received no therapy and were used as a control. Animals of groups 2 and 3 passed through a CT radiation therapy with a total dose of 18 Gy at a tube voltage of 140 kV (Volume Zoom, Siemens Medical Solutions, Erlangen). Six therapy sessions were performed (2 per day at an interval of 4 hours), and one dose of 3 Gy was administered to the animals in each case. The radiation was limited to the tumor using the layer collimators and introduced within 90 s, which corresponds to a tumor-dose rate of 2 Gy/minute. Before each therapy session, a dimeric contrast medium (Isovist 300, Bayer Schering Pharma, Berlin) in a dose of 2 g of iodine/kg of body weight was administered to the animals of group 2. The latter was administered intravenously, within 6 minutes. With this application scheme, a maximum iodine-tumor concentration in a short plateau phase of between 6 and 7 minutes is achieved (FIG. 14). […]

## CN(C(=O)CC(=O)N(C)c1c(I)c(C(=O)NC(CO)C(O)CO)c(I)c(C(=O)NC(CO)C(O)CO)c1I)c1c(I)c(C(=O)NC(CO)C(O)CO)c(I)c(C(=O)NC(CO)C(O)CO)c1I (stereo not shown) [Isovist 300, Iotrolan]
[1]; 2 g of iodine/kg i.v. within 6 minutes before each of 6 sessions of 3 Gy within 90 seconds, 140 kV, total 18 Gy
  animals showing a significant therapy effect (survival time): 2 of 6
[1]; same total dose 18 Gy, linear accelerator 2 MV, 3 fractions of 6 Gy
  therapeutic result relative to standard therapy on the linear accelerator: therapeutic advantage
[2]
  time of tumor iodine concentration maximum with plateau after the end of administration: about 1 minute
[3]
  survival after contrast medium-enhanced radiation therapy: considerable therapeutic advantage
